Source: patent US20030041357A1, “Herbicide resistant plants” (priority 1996, published 2003)

What was measured:
[1] = test system: pDV6 plants expressing both glyphosate resistance genes and GST; assay: Pre-em/post-em herbicide treatment of DV6 plants (Table 1); parameters: species or system Tobacco; conditions: in vivo
[2] = test system: transgenic tomato over-expressing the Erwinia uredovora crt1 (PDS) gene; assay: PDS inhibitor herbicide tolerance trial; type: in vivo; conditions: for Phytotoxity at 27 PAT: Transgenic tomato
[3] = test system: wild type tomato (cv Ailsa Craig); assay: PDS inhibitor herbicide tolerance trial; type: in vivo
GST-27 tobacco lines = assay: Rooting assay on MS medium with herbicide; type: in vivo, Nicotiana tabacum cv Samsum
wild-type tobacco = assay: Rooting assay on MS medium with herbicide; type: in vivo, Nicotiana tabacum cv Samsum; conditions: for root growth of explants: 3 weeks, 10, 20, 40 ppm acetochlor/metolachlor, 20, 40, 100 ppm alachlor
[4] = molecular target: GST-27 (leaf extracts of GST-27 expressing tobacco) (Zea mays, UniProt P46420); assay: In vitro HPLC assay of GST activity against herbicide substrates; type: biochemical; conditions: GST-27 tobacco extracts, 5 mM glutathione, 20 ppm herbicide
Chain of GST-27 (leaf extracts of GST-27 expressing tobacco) (P46420 whole entry): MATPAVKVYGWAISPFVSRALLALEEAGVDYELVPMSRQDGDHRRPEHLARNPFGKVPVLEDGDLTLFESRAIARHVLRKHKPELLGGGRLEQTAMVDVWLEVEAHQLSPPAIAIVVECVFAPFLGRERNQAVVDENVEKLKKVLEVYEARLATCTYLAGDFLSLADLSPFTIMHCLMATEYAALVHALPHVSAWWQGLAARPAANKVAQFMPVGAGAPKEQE

wild type controls = assay: Growth on herbicide-containing tissue culture medium; type: in vivo, Tobacco; conditions: 0.01 and 0.05 mM glyphosate; 10 and 40 ppm alachlor
[5] = test system: transgenic tobacco plants expressing GST-27; assay: Post-emergence glasshouse herbicide trial; type: in vivo, Nicotiana tabacum cv Samsum; conditions: sprayed 16 days after sowing, 5% JF 5969
[6] = test system: primary transformants from pDV6-Bin; assay: Growth on herbicide-containing tissue culture medium; type: in vivo, Tobacco; conditions: a number of transgenics; 0.01 and 0.05 mM glyphosate; 10 and 40 ppm alachlor
[7] = test system: transgenic tobacco plants expressing GST-27; assay: Pre-emergence glasshouse herbicide trial; type: in vivo, Nicotiana tabacum cv Samsum; conditions: 300 and 350 g/ha in 5% JF 5969
DV6/HPPD tobacco = assay: Herbicide trial of DV6/HPPD cross (Example 10); type: in vivo; conditions: 75 g/ha
Wild Type tobacco = assay: Herbicide trial of DV6/HPPD cross (Example 10); type: in vivo; conditions: 75 g/ha
[8] = test system: transgenic maize seedlings expressing GST-27; assay: Acetochlor-treated soil seedling test; type: in vivo; conditions: soil treated with 2,000 to 8,000 grams per hectare, 7 days
[9] = test system: non-transgenic maize seedlings; assay: Acetochlor-treated soil seedling test; type: in vivo; conditions: soil treated with 2,000 to 8,000 grams per hectare, absence of safener, 7 days
[10] = test system: maize seedlings which contain the PAT gene; assay: Glufosinate spray of maize seedlings; type: in vivo; conditions: commercial mix, about 0.1 to 1% active ingredient
[11] = line 2, pilot experiment, 2 weeks
[12] = line 6, pilot experiment, 2 weeks

**Q.** Which “% Phytotoxicity (mean, 21 DAT)” value [1] does the source give for `CCCN(CCC)C(=O)SCC` [EPTC] here?
**A.** 0%

**Q.** How did the “Phytotoxity at 27 PAT” value ([2]; 333 g/ha) turn out when `O=C1C(Cl)C(CCl)CN1c1cccc(C(F)(F)F)c1` (stereo not shown) [Compound I] was run?
**A.** 0%

**Q.** And the “Phytotoxity at 27 PAT” value ([2]; 1000 g/ha)?
**A.** 0%

**Q.** What about the “Phytotoxity at 27 PAT” value ([2]; 3000 g/ha) of the same compound?
**A.** 0%

**Q.** What about the “Phytotoxity at 27 PAT” value ([2]; 9000 g/ha) of the same compound?
**A.** 0%

**Q.** What about the “rate to which transgenic tomatoes are highly tolerant” value ([2]; transgenic tomatoes) of the same compound?
**A.** up to 9 kg/ha

**Q.** What about the “Phytotoxity at 27 PAT” value ([3]; 333 g/ha) of the same compound?
**A.** 0%

**Q.** What about the “Phytotoxity at 27 PAT” value ([3]; 1000 g/ha) of the same compound?
**A.** 23.3%

**Q.** And the “Phytotoxity at 27 PAT” value ([3]; 3000 g/ha)?
**A.** 100%

**Q.** And the “Phytotoxity at 27 PAT” value ([3]; 9000 g/ha)?
**A.** 100%

**Q.** `CCC1CN(c2cccc(C(F)(F)F)c2)C(=O)C1C(=O)NC` (stereo not shown) [Compound III] was tested. Which “Phytotoxity at 27 PAT” value ([2]; 111 g/ha) did it give?
**A.** 0%

**Q.** What about the “Phytotoxity at 27 PAT” value ([2]; 333 g/ha) of the same compound?
**A.** 0%

**Q.** What about the “Phytotoxity at 27 PAT” value ([2]; 1000 g/ha) of the same compound?
**A.** 10%

**Q.** And the “Phytotoxity at 27 PAT” value ([2]; 3000 g/ha)?
**A.** 3.3%

**Q.** And the “Phytotoxity at 27 PAT” value ([3]; 37 g/ha)?
**A.** 0%

**Q.** What about the “Phytotoxity at 27 PAT” value ([3]; 111 g/ha) of the same compound?
**A.** 8.3%

**Q.** What about the “Phytotoxity at 27 PAT” value ([3]; 333 g/ha) of the same compound?
**A.** 56.7%

**Q.** What about the “Phytotoxity at 27 PAT” value ([3]; 1000 g/ha) of the same compound?
**A.** 100%

**Q.** Which rooting concentration limit (GST-27 tobacco lines; GST-27 line 17, 3 weeks) does the source give for `CCc1cccc(C)c1N(C(=O)CCl)C(C)COC` (stereo not shown) [Metolachlor, metolachlor] here?
**A.** more than 40 ppm

**Q.** And the “root growth of explants” value (GST-27 tobacco lines; GST-27 lines 6 and 17, 3 weeks)?
**A.** produce short roots

**Q.** And the “root growth of explants” value (wild-type tobacco)?
**A.** produces very few tiny roots at 10 and 20 ppm

**Q.** What about the “GST activity against herbicide substrate (HPLC)” value [4] of the same compound?
**A.** lowest activity

**Q.** How did the “concentration up to which roots are produced” value (“concentration up” below) (GST-27 tobacco lines; GST-27 lines 6 and 17, 3 weeks) turn out when `CCc1cccc(CC)c1N(COC)C(=O)CCl` [Alachlor, alachlor] was run?
**A.** ≤ 40 ppm

**Q.** And the “root growth of explants” value (GST-27 tobacco lines; Lines 9 and 16, 20 and 40 ppm, 3 weeks)?
**A.** do not produce any roots

**Q.** And the “concentration from which an effect of the herbicide is observable” value (shortened to “concentration from which an effect”) (GST-27 tobacco lines; [11])?
**A.** ≥ 20 ppm

**Q.** What about the “concentration up” value (GST-27 tobacco lines; [11]) of the same compound?
**A.** up to 10 ppm

**Q.** And the “concentration from which an effect” value (GST-27 tobacco lines; [12])?
**A.** ≥ 40 ppm

**Q.** And the “concentration up” value (GST-27 tobacco lines; [12])?
**A.** ≤ 20 ppm

**Q.** What about the “growth on tissue culture medium” value (wild type controls) of the same compound?
**A.** fail to

**Q.** What about the “resistance to post-emergent spray (damage scored after 3 weeks)” value [5] of the same compound?
**A.** resistant

**Q.** What about the “growth on tissue culture medium” value [6] of the same compound?
**A.** grow successfully

**Q.** And the “root growth of explants” value (wild-type tobacco)?
**A.** does not produce any root

**Q.** And the “concentration from which an effect” value (wild-type tobacco; pilot experiment, 2 weeks)?
**A.** ≥ 1 ppm

**Q.** What about the “concentration from which plants do not produce new leaves” value (wild-type tobacco; pilot experiment, 2 weeks) of the same compound?
**A.** ≥ 10 ppm

**Q.** What about the “concentration up” value (wild-type tobacco; pilot experiment, 2 weeks) of the same compound?
**A.** up to 5 ppm

**Q.** And the “resistance to pre-emergent application (germination scored after 3 weeks)” value [7]?
**A.** resistant

**Q.** For `CCOCN(C(=O)CCl)c1c(C)cccc1CC` [Acetochlor, acetochlor], which “root growth of explants” value (GST-27 tobacco lines; GST-27 lines 6 and 17, 3 weeks) is on record?
**A.** produce few roots at 10 and 20 ppm

**Q.** What about the “root growth of explants” value (GST-27 tobacco lines; lines 5 and 12, 3 weeks) of the same compound?
**A.** not as resistant

**Q.** What about the “phytotoxicity score, 21 DAT” value (DV6/HPPD tobacco; DV6/HPPD Rep a) of the same compound?
**A.** 0

**Q.** What about the “phytotoxicity score, 21 DAT” value (DV6/HPPD tobacco; DV6/HPPD Rep b) of the same compound?
**A.** 0

**Q.** And the “phytotoxicity score, 21 DAT” value (Wild Type tobacco; Wild Type Rep a)?
**A.** 40

**Q.** And the “phytotoxicity score, 21 DAT” value (Wild Type tobacco; Wild type Rep b)?
**A.** 100

**Q.** And the seedling damage [8]?
**A.** little, if any damage

**Q.** And the “root growth of explants” value (wild-type tobacco)?
**A.** do not show any rooting

**Q.** What about the seedling damage [9] of the same compound?
**A.** very substantial damage

**Q.** What about the “GST activity against herbicide substrate (HPLC)” value [4] of the same compound?
**A.** lowest activity

**Q.** Which results are given for `COc1nn(-c2cccc(C(F)(F)F)c2)/c(=N\C(=O)OC(C)C)s1` [Compound II]?
**A.** Phytotoxity at 27 PAT ([2]; 111 g/ha): 3.3%; Phytotoxity at 27 PAT ([2]; 333 g/ha): 0%; Phytotoxity at 27 PAT ([2]; 1000 g/ha): 3.3%; Phytotoxity at 27 PAT ([2]; 3000 g/ha): 0%; Phytotoxity at 27 PAT ([3]; 37 g/ha): 3.3%; Phytotoxity at 27 PAT ([3]; 111 g/ha): 13.3%; Phytotoxity at 27 PAT ([3]; 333 g/ha): 20%; Phytotoxity at 27 PAT ([3]; 1000 g/ha): 100%

**Q.** How did the “resistance of seedlings to spray” value [10] turn out when `CP(=O)(O)CCC(N)C(=O)O` (stereo not shown) [glufosinate] was run?
**A.** either completely resistant to glufosinate, or are relatively tolerant of the herbicide
